From patent publication US20110165279A1, “SWEET POTATO TRYPSIN INHIBITOR AND METHODS FOR TREATING INFLAMMATION AND HYPERALGESIA” (Academia Sinica Office of Public Affairs (Technology …, priority 2010, published 2011)

What was measured:
[1] = test system: mouse hind footpad; test: Histological examination of mouse hind footpad after carrageenan (H&E, neutrophil counts); assay type: in vivo; conditions: biopsies 5 hours after Carr, IbTI 40 mg/kg, indomethacin 10 mg/kg
Method: For histological examination, biopsies of paws were taken 5 hours after Carr injection into the plantar side of right hind paws. The tissue slices were fixed in solution with 1.85% formaldehyde and 1% acetic acid for 1 week at room temperature, then dehydrated by graded ethanol and embedded in Paraffin (Sherwood Medical, St. Louis, Mo., USA). Sections (thickness 5 μm) were deparaffinized with xylene and stained with hematoxylin and eosin. All samples were observed and photographed with BH2 Olympus microscopy (Japan). Every 3-5 tissue slices were randomly chosen from control, Carr, Indo and IbTI-treated (40 mg/kg) groups. The numbers of neutrophils were counted in each scope (400×) and average counts from 5 scopes of each tissue slice were calculated.

[2] = test system: hind paw edema induced by λ-carrageenan in mice; test: λ-carrageenan-induced hind paw edema test in mice; assay type: in vivo, mouse; conditions: 10 mg/kg i.p., 3, 4 and 5 hours after Carr injection; p<0.01 or p<0.001
Method: Male ICR mice (18-25 g) were obtained from the BioLASCO Taiwan Co., Ltd. The animals were kept in plexiglass cages under a constant temperature of 22±1° C., relative humidity 55±5%, and a light regime of 12 hours dark/12 hour light for at least 2 weeks before the experiment. They were given food and water ad libitum. All experimental procedures were performed according to the NIH Guide for the Care and Use of Laboratory Animals. The placebo groups were given subcutaneous 0.1 ml/10 g saline using a bent blunted 27-gauge needle connected to a 1 ml syringe. All tests were conducted under the guidelines of the International Association for the Study of Pain [Zimmermann, M., Ethical guidelines for investigations of experimental pain in conscious animals. Pain. 1983, 16, 109-110].
Male ICR mice (eight per group), 18 g to 25 g, were fasted for 24 hours before the experiment with free access to water. […] Paw volume was measured immediately after Carr injection and at 1, 2, 3, 4 and 5 hours intervals after the administration of the edematogenic agent using a plethysmometer (model 7159, Ugo Basile, Varese, Italy). The degree of swelling induced was evaluated by the ratio a/b, where a is the volume of the right hind paw after Carr treatment, and b is the volume of the right hind paw before Carr treatment.

COc1ccc2c(c1)c(CC(=O)O)c(C)n2C(=O)c1ccc(Cl)cc1 [Indomethacin, indomethacin]
histological appearance of hind footpad vs Carr only [1]: significantly reduced the level of hemorrhage, edema and inflammatory cell infiltration
neutrophil numbers in paw tissue vs Carr-treated group ([1]; p<0.01): significantly decreased the number of inflammatory neutrophil infiltration
paw edema [2]: significantly decreased paw edema
